Measurements from PubChem BioAssay AID248 (DTP/NCI, 2004).
Several values for one entry are separate records, joined by “and”; a condition that tells them apart may be missing. Identical values can stand only once. Inconclusive results and toxic doses are left out. Cut-off read from the data, not from the text of the source: active = T/C of 150% or more; inactive = T/C below 125%.

Tested on: L1210 leukemia ip in BDF1 mice, survival T/C
Assay: NCI In Vivo Anticancer Drug Screen. Data for tumor model L1210 Leukemia (intraperitoneal) in B6D2F1 (BDF1) mice
Settings: endpoint: mean survival time, higher = longer survival
Procedure, shortened: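 Mice bearing the transplanted tumor received compound or vehicle. Survival of the treated group was divided by that of the vehicle-treated control group to give the ratio.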

[1] = dose: 100.0 mg/kg/injection, schedule: Q04DX003 (ip), vehicle: Klucel (hydroxypropylcellulose) (HPC)
[2] = dose: 200.0 mg/kg/injection, schedule: Q04DX003 (ip), vehicle: Klucel (hydroxypropylcellulose) (HPC)
[3] = dose: 400.0 mg/kg/injection, schedule: Q04DX003 (ip), vehicle: Klucel (hydroxypropylcellulose) (HPC)
[4] = dose: 100.0 mg/kg/injection, schedule: Q01DX001 (ip), vehicle: Klucel (hydroxypropylcellulose) (HPC)
[5] = dose: 200.0 mg/kg/injection, schedule: Q01DX001 (ip), vehicle: Klucel (hydroxypropylcellulose) (HPC)
[6] = dose: 400.0 mg/kg/injection, schedule: Q01DX001 (ip), vehicle: Klucel (hydroxypropylcellulose) (HPC)
[7] = dose: 100.0 mg/kg/injection, schedule: Q01DX001 (ip), vehicle: saline
[8] = dose: 200.0 mg/kg/injection, schedule: Q01DX001 (ip), vehicle: saline
[9] = dose: 100.0 mg/kg/injection, schedule: Q04DX002 (ip), vehicle: Klucel (hydroxypropylcellulose) (HPC)
[10] = dose: 200.0 mg/kg/injection, schedule: Q04DX002 (ip), vehicle: Klucel (hydroxypropylcellulose) (HPC)
[11] = dose: 400.0 mg/kg/injection, schedule: Q04DX002 (ip), vehicle: Klucel (hydroxypropylcellulose) (HPC)
[12] = dose: 100.0 mg/kg/injection, schedule: Q04DX003 (ip), vehicle: saline
[13] = dose: 200.0 mg/kg/injection, schedule: Q04DX003 (ip), vehicle: saline
[14] = dose: 400.0 mg/kg/injection, schedule: Q04DX003 (ip), vehicle: saline
[15] = dose: 50.0 mg/kg/injection, schedule: Q01DX001 (ip), vehicle: carboxymethylcellulose (CMC)
[16] = dose: 100.0 mg/kg/injection, schedule: Q01DX001 (ip), vehicle: carboxymethylcellulose (CMC)
[17] = dose: 100.0 mg/kg/injection, schedule: Q01DX009 (ip), vehicle: Klucel (hydroxypropylcellulose) (HPC)
[18] = dose: 200.0 mg/kg/injection, schedule: Q01DX001 (ip), vehicle: carboxymethylcellulose (CMC)
[19] = dose: 400.0 mg/kg/injection, schedule: Q01DX001 (ip), vehicle: carboxymethylcellulose (CMC)
[20] = dose: 400.0 mg/kg/injection, schedule: Q01DX001 (ip), vehicle: saline
[21] = dose: 100.0 mg/kg/injection, schedule: Q01DX009 (ip), vehicle: saline
[22] = dose: 200.0 mg/kg/injection, schedule: Q01DX009 (ip), vehicle: saline
[23] = dose: 200.0 mg/kg/injection, schedule: Q01DX009 (ip), vehicle: Klucel (hydroxypropylcellulose) (HPC)
[24] = dose: 400.0 mg/kg/injection, schedule: Q01DX009 (ip), vehicle: Klucel (hydroxypropylcellulose) (HPC)

Measured: T/C

CCCCCCCCCCCC(=O)NC(=S)Nc1ccccc1C(F)(F)F
inactive: [1] 104 % of control | [2] 92 % of control | [3] 92 % of control

Cc1cc(O)c(C(C)(C)C)cc1N=O
inactive: dose: 50.0 mg/kg/injection, schedule: Q04DX003 (ip), vehicle: saline + alcohol 104 % of control | dose: 100.0 mg/kg/injection, schedule: Q04DX003 (ip), vehicle: saline + alcohol 101 % of control | dose: 200.0 mg/kg/injection, schedule: Q04DX003 (ip), vehicle: saline + alcohol 95 % of control

O=S1ON=C(c2ccccc2)N1c1ccccc1Cl (stereo unspecified)
inactive: [1] 93 % of control | [2] 93 % of control | [3] 88 % of control

O=C(O)c1cc(Br)c(OCc2ccccc2)c(Br)c1
inactive: dose: 100.0 mg/kg/injection, schedule: Q01DX001 (ip), vehicle: saline with Tween-80 101 % of control | dose: 200.0 mg/kg/injection, schedule: Q01DX001 (ip), vehicle: saline with Tween-80 104 % of control | dose: 400.0 mg/kg/injection, schedule: Q01DX001 (ip), vehicle: saline with Tween-80 104 % of control

NC(=O)c1ccccc1NC(=O)CCCOc1ccccc1
inactive: [4] 100 % of control | [1] 94 % of control | [5] 93 % of control | [2] 97 % of control | [6] 96 % of control

CCOC(=O)C(=O)C1CCCCC1=O (stereo unspecified)
inactive: [7] 108 % of control | [8] 108 % of control

N#CCCCCCCn1cnc2c(=S)nc[nH]c21
inactive: [1] 104 % of control | [2] 107 % of control | [3] 107 % of control

CCCNC(=O)OC1CCS(=O)(=O)C1 (stereo unspecified)
inactive: [9] 95 % of control | [10] 100 % of control | [11] 95 % of control

Nc1cccc2cn[nH]c12
inactive: dose: 100.0 mg/kg/injection, schedule: Q01DX009 (ip), vehicle: other 104 % of control | dose: 200.0 mg/kg/injection, schedule: Q01DX009 (ip), vehicle: other 112 % of control

O=C(O)CCCCCn1nnc2c(=O)[nH]cnc21
inactive: [12] 106 % of control | [13] 106 % of control | [14] 101 % of control

CC(=O)Nc1ccc(S(N)(=O)=O)cc1
inactive: [15] 95 % of control | [16] 101 % of control | [17] 103 % of control | [18] 95 % of control | [19] 97 % of control

Cc1cccc2c(CCC(=O)O)c[nH]c12
inactive: [7] 100 % of control | [8] 94 % of control | [20] 94 % of control

O=C(Nc1ccc(C(=O)Nc2cccc(C3=NCCN3)c2)cc1)Nc1ccc(C(=O)Nc2cccc(C3=NCCN3)c2)cc1
inactive: dose: 3.75 mg/kg/injection, schedule: Q01DX Z (ip), vehicle: methylcellulose (MC) 101 % of control | dose: 3.8 mg/kg/injection, schedule: Q01DX Z (ip), vehicle: methylcellulose (MC) 100 % of control | dose: 7.5 mg/kg/injection, schedule: Q01DX Z (ip), vehicle: methylcellulose (MC) 97 % of control | dose: 15.0 mg/kg/injection, schedule: Q01DX Z (ip), vehicle: methylcellulose (MC) 106 % of control | dose: 30.0 mg/kg/injection, schedule: Q01DX Z (ip), vehicle: methylcellulose (MC) 118 % of control and 86 % of control | [15] 103 % of control | [16] 120 % of control | dose: 120.0 mg/kg/injection, schedule: Q01DX Z (ip), vehicle: methylcellulose (MC) 124 % of control | [18] 120 % of control | dose: 225.0 mg/kg/injection, schedule: Q01DX009 (ip), vehicle: saline with Tween-80 117 % of control | dose: 340.0 mg/kg/injection, schedule: Q01DX009 (ip), vehicle: saline with Tween-80 88 % of control | [19] 108 % of control

Cl/C(=C/C=C(c1ccccc1)c1ccccc1)c1ccccc1
inactive: dose: 100.0 mg/kg/injection, schedule: Q04DX002 (ip), vehicle: saline with Tween-80 88 % of control | dose: 200.0 mg/kg/injection, schedule: Q04DX002 (ip), vehicle: saline with Tween-80 88 % of control

C=CCC(CC)(C(=O)O)C(=O)O
inactive: [21] 96 % of control | [12] 102 % of control | [22] 93 % of control | [13] 95 % of control | [14] 86 % of control

c1ccc(-c2cc3ccccc3[nH]2)cc1
inactive: [4] 98 % of control | [5] 96 % of control | [23] 94 % of control | [6] 102 % of control

c1ccc(Cc2ccccc2)cc1
inactive: [9] 101 % of control | [10] 105 % of control | [11] 92 % of control

C[N+]1(C)C2CC(OC(=O)C(CO)c3ccccc3)CC1C1OC12 (stereo unspecified)
inactive: dose: 75.0 mg/kg/injection, schedule: Q01DX001 (ip), vehicle: other 106 % of control

CC(=O)OC1CCC(NC(N)=O)CC1 (stereo unspecified)
inactive: dose: 176.0 mg/kg/injection, schedule: Q01DX001 (ip), vehicle: other 102 % of control | dose: 264.0 mg/kg/injection, schedule: Q01DX001 (ip), vehicle: other 120 % of control | dose: 400.0 mg/kg/injection, schedule: Q01DX001 (ip), vehicle: other 97 % of control | dose: 600.0 mg/kg/injection, schedule: Q01DX001 (ip), vehicle: other 105 % of control

Cc1ccc(Nc2cc(C)nc(N)n2)cc1
inactive: dose: 25.0 mg/kg/injection, schedule: Q01DX Z (ip), vehicle: methylcellulose (MC) 90 % of control

CC[C@H](CC[C@@H](C)C1CC[C@H]2[C@@H]3CCC4=CC(=O)CC[C@]4(C)[C@H]3CC[C@]12C)C(C)C (stereo partly specified)
inactive: [7] 98 % of control | [8] 95 % of control | [20] 97 % of control

CC(C)[C@]12O[C@H]1[C@@H]1O[C@@]13[C@@]1(C)CCC4=C(COC4=O)[C@@H]1C[C@@H]1O[C@@]13C2=O
inactive: dose: 79.0 micrograms/kg/injection, schedule: Q01DX009 (ip), vehicle: saline 92 % of control | dose: 118.0 micrograms/kg/injection, schedule: Q01DX009 (ip), vehicle: saline 105 % of control | dose: 178.0 micrograms/kg/injection, schedule: Q01DX009 (ip), vehicle: saline 99 % of control | dose: 267.0 micrograms/kg/injection, schedule: Q01DX009 (ip), vehicle: saline 101 % of control | dose: 400.0 micrograms/kg/injection, schedule: Q01DX009 (ip), vehicle: saline 108 % of control

Nc1cc(=O)[nH]c(O)c1C(=O)O
inactive: dose: 100.0 mg/kg/injection, schedule: Q04DX003 (ip), vehicle: saline with Tween-80 98 % of control and 90 % of control | dose: 200.0 mg/kg/injection, schedule: Q04DX003 (ip), vehicle: saline with Tween-80 97 % of control | dose: 400.0 mg/kg/injection, schedule: Q04DX003 (ip), vehicle: saline with Tween-80 94 % of control

O=C1CCCCc2cc(O)c([N+](=O)[O-])cc21
inactive: dose: 50.0 mg/kg/injection, schedule: Q01DX009 (ip), vehicle: saline with Tween-80 101 % of control | dose: 100.0 mg/kg/injection, schedule: Q01DX009 (ip), vehicle: saline with Tween-80 95 % of control

N#CCCOc1ccccc1
inactive: [7] 108 % of control | [8] 108 % of control | [20] 104 % of control

Cc1cccc(C)c1NC(=O)Oc1c(C)cccc1C
inactive: [17] 106 % of control | [1] 102 % of control | [23] 101 % of control | [2] 102 % of control | [24] 97 % of control | [3] 100 % of control

CC(=O)N(C)c1ccc(NC(=O)Nc2ccccc2C(F)(F)F)cc1
inactive: [17] 95 % of control | [23] 93 % of control | [24] 103 % of control

Nc1ccc2c(c1)-c1ccc(F)cc1C2=O
inactive: [16] 91 % of control | [18] 91 % of control | [19] 89 % of control

CN(C)P(N)(N)=O
inactive: [21] 101 % of control | [1] 97 % of control | [22] 97 % of control | [2] 101 % of control | dose: 400.0 mg/kg/injection, schedule: Q01DX009 (ip), vehicle: saline 103 % of control | [3] 100 % of control

Cc1ccc(S(=O)(=O)NNS(=O)(=O)c2ccc(C)cc2)cc1
inactive: [4] 109 % of control | [5] 109 % of control
